Laboratory results as given in PMC3352337, “Synergistic Antimycobacterial Actions of Knowltonia vesicatoria (L.f) Sims” (Evidence-based Complementary and Alternative Medicine : eCAM, 2012).
Converted amounts (≈) assume the structure as drawn. Like-named read-outs stand apart in the source and are kept apart here. Marks after values point to notes of the source that are not given here. *1 amine or outer side, *2 acyl side, *3 side chain or, on linkers, in order; H or OH if unused. Where a SMILES comes first, the peptide text is derived from it. Bridges are numbered along the chain shown (N, C = ends). Roman numbers before positions name the chains, in order. [ ]: non-standard residue; d: D form. Actinocin(9to1) = Cc1c2oc3c(C)ccc(C(=O)[*:1])c3nc-2c(C(=O)[*:2])c(N)c1=O; NMeV = CN[C@H](C(=O)O)C(C)C; Sar = CNCC(=O)O

Legend:
M. tuberculosis [1] = conditions: cited from earlier work
U937 cells = experiment: XTT cytotoxicity assay on PMA-differentiated U937 cells; conditions: for IC50: Homo sapiens, U-937, 72 h
[2] = test system: M. tuberculosis H37Rv (ATCC 27294); experiment: microbe, parasite or virus in culture; format: cell-based, Mycobacterium tuberculosis; conditions: for ΔGI4-3 ± SD: BACTEC growth index change, V2 10^-2 inoculum control 22.0 ± 2.94; for MIC: Mycobacterium tuberculosis, read-out: MIC (minimum inhibitory concentration)
[3] = XTT cytotoxicity assay on PMA-differentiated U937 cells; conditions: human, PMA-differentiated U937 cells (macrophage-like), pH 7.2
M. tuberculosis [4] = experiment: Microplate assay MIC against M. tuberculosis (compound 2); format: cell-based, Mycobacterium tuberculosis; conditions: BACTEC MIC not determined
[5] = test system: Mycobacterium smegmatis (MC^2 155); experiment: Microdilution (microplate INT) susceptibility assay on M. smegmatis; format: cell-based; conditions: Mycolicibacterium smegmatis
Method: Cryopreserved or freshly scraped colonies were suspended in fresh Middlebrook 7H9 broth (Sigma-Aldrich Chemical Co., South Africa) and incubated for 24 h at 37°C. The overnight liquid culture was then transferred to a sterile test tube containing 20–25 glass beads (with a 2.00 mm diameter) and homogenised by using a vortex mixer (Heidolph, Germany) for 5–10 min. The broth culture was then left still for 5–10 min to let larger clumps of mycobacteria settle. The supernatant was carefully decanted to a sterile flask and adjusted with Middlebrook 7H9 broth base to an optical density of 0.2 (log phase) at 550 nm (Beckman DU-720 UV spectrophotometer), yielding 1.26 × 10^8 colony-forming units per millilitre (CFU/mL). The microdilution test was performed in 96-well microtiter plates as described earlier.
The plant extract and fractions were dissolved in 10% dimethyl sulfoxide (DMSO) to obtain a stock concentration of 10 mg/mL. Ciprofloxacin (Sigma-Aldrich Chemical Co., South Africa) at final concentrations ranging from 2.00 × 10^−3 to 7.80 × 10^−5 mg/mL served as the positive drug control. Serial twofold dilutions of each test sample were made with Middlebrook 7H9 broth base (Sigma-Aldrich Chemical Co., South Africa) to yield volumes of […] with final concentrations ranging from 2.50 to 0.08 mg/mL. […]

[6] = read-out: IC50 (fifty percent inhibitory concentration)

Question: With C=CC(O)(CC[C@@H](C)[C@H]1CC[C@H]2[C@@H]3CC=C4C[C@@H](O)CC[C@]4(C)[C@H]3CC[C@]12C)C(C)C (some centres unmarked) [saringosterol] as the molecule, how does the MIC (M. tuberculosis [1]; M. tb ref 34) read?
Answer: Its MIC is 0.250 µg/mL (≈ 0.583 µM).

Question: For Cc1c2oc3c(C)ccc(C(=O)N[C@@H]4C(=O)N[C@H](C(C)C)C(=O)N5CCC[C@H]5C(=O)N(C)CC(=O)N(C)[C@@H](C(C)C)C(=O)O[C@@H]4C)c3nc-2c(C(=O)N[C@@H]2C(=O)N[C@H](C(C)C)C(=O)N3CCC[C@H]3C(=O)N(C)CC(=O)N(C)[C@@H](C(C)C)C(=O)O[C@@H]2C)c(N)c1=O [Actinomycin D] (I: T[dV]P[Sar][NMeV] / II: T[dV]P[Sar][NMeV]; ester I:1-I:C, II:1-II:C; linker I:N-II:N via Actinocin(9to1)), which IC50 (U937 cells; read-out: IC50 (fifty percent inhibitory concentration), U937 macrophages, 72 h, XTT) is on record?
Answer: Its IC50 is 0.0038 µg/mL (≈ 0.00303 µM).

Question: And the “IC50 (fifty percent inhibitory concentration)” value (U937 cells; U937 macrophages, 72 h, XTT)?
Answer: Its value is 3.820 ± 0.258 ×10^−3 μg/mL.

Question: For NNC(=O)c1ccncc1 [INH, isoniazid], which “ΔGI4-3 ± SD” value [2] is on record?
Answer: Its value is −2.50 ± 2.12.

Question: What about the “MIC (minimum inhibitory concentration)” value ([2]; BACTEC radiometric) of the same molecule?
Answer: The value was 0.20 µg/mL (≈ 1.46 µM).

Question: And the MIC ([2]; BACTEC radiometric)?
Answer: Its MIC is 0.2 µg/mL (≈ 1.46 µM).

Question: And the viability at 72 h, 200 μg/mL [3]?
Answer: The viability at 72 h, 200 μg/mL was 80%.

Question: What about the IC50 (U937 cells; [6]) of the same molecule?
Answer: The IC50 was > 200 µg/mL.

Question: Which “ΔGI4-3 ± SD” value [2] does the source give for CCC(=CC[C@@H](C)[C@H]1CC[C@H]2[C@@H]3CC=C4CC(O)CC[C@]4(C)[C@H]3CC[C@]12C)C(C)C (some centres unmarked) [Compound (1), Stigmasta-5,23-dien-3-ol] here?
Answer: The value was −9.00 ± 1.41.

Question: And the MIC ([2]; BACTEC radiometric)?
Answer: Its MIC is 50 µg/mL (≈ 121 µM).

Question: What about the IC50 (U937 cells; [6]) of the same molecule?
Answer: Its IC50 is 16.41 ± 0.135 µg/mL (≈ 39.8 µM).

Question: With O=C1C=CC(CO)O1 (centres unmarked) [Compound (2), 5-(hydroxymethyl)furan-2(5H)-one] as the molecule, how does the IC50 (U937 cells; [6]) read?
Answer: The IC50 was 44.7 ± 0.5 µg/mL (≈ 392 µM).

Question: What about the “MIC determined via microplate assay” value (M. tuberculosis [4]) of the same molecule?
Answer: Its value is 100.0^k μg/mL.

Question: And the MIC (M. tuberculosis [4]; Mycobacterium tuberculosis, read-out: MIC determined via microplate assay)?
Answer: The MIC was 200 µg/mL (≈ 1750 µM).

Question: With O=C(O)c1cn(C2CC2)c2cc(N3CCNCC3)c(F)cc2c1=O [Ciprofloxacin] as the molecule, how does the MIC ([5]; MC^2155, 24 h, INT microplate, read-out: MIC (minimum inhibitory concentration)) read?
Answer: The MIC was 1.25 µg/mL (≈ 3.77 µM).

Question: And the MBC ([5]; MC^2155, 48 h subculture, INT, read-out: MBC (minimum bactericidal concentration))?
Answer: The MBC was 1.25 µg/mL (≈ 3.77 µM).

Question: For CC[C@H](/C=C/[C@@H](C)[C@H]1CC[C@H]2[C@@H]3CC=C4C[C@@H](O)CC[C@]4(C)[C@H]3CC[C@]12C)C(C)C [stigmasterol], which MIC (M. tuberculosis [1]; phytosterols from Morinda citrifolia against M. tb ref 33 (Saludes et al.)) is on record?
Answer: The MIC was 32.00 µg/mL (≈ 77.5 µM).
